From US10080774B2, “Oncolytic adenovirus armed with therapeutic genes” (priority 2002, dated 2018)
Converted amounts (≈) assume the structure as drawn.

Experiments:
[1] = tested on: HU-VEC-C; experiment: Tube formation (vascular-like structures) assay; assay type: cell-based, human; details: 400-800 ng/ML, 18 h
Procedure: This assay will be performed using an in vitro angiogenesis kit (Chemicon, Temecula, Calif.) according to the manufacturer's instructions. Wells in a 96-well plate will be coated with ECMatrix solution, and 5×10^3 cells will be plated in triplicate wells in a volume of 50 μl of EGM (Clonetics Corp.) containing 2% FBS. The cells will be incubated for 18 h at 37° C., and tube formation will be evaluated by phase-contract microscopy. To determine the viability of cells in these assays, cells will be stained with Hoechst 33342 (5 μg/ml, Sigma) and propidium iodide (2.5 μg/ml, Sigma) for 5 min at 37° C. and analyzed by fluorescence microscopy.
These studies were performed to elucidate the role of Ang-2 role in the process of angiogenesis.

[2] = tested on: CAM; experiment: Angiogenesis in vivo, CAM model; parameters: species or system chicken; details: 72 h after treatment
Procedure: Fertilized chicken eggs (SPAFAS; Charles River Lab., Wilmington, Mass.) will be incubated at 37° C. at 55% humidity for 9 days. An artificial air sac will be created over a region containing small blood vessels in the CAM as described (Brooks et al., 1999). A small window will be cut in the shell after removing 3 ml of albumen. Filter disks (6 mm in diameter) will be coated with cortisone acetate in absolute ethanol (3 mg/mL). The CAM will be locally treated with filter disks saturated with a solution containing bFGF (50 ng/disk; R&D Systems, Minneapolis, Minn.) and VEGF121/rGel (at 1 or 10 nM), rGel (at 1 or 10 nM), or buffer (PBS). The filter will be placed on the CAM in a region with the lowest density of blood vessels, and in the vicinity, as reference, of a large vessel. Angiogenesis will be monitored by photography 3 days after treatment. Images will be captured using an Olympus stereomicroscope (SZ×12) and Spot™ Basic software (Diagnostic Instruments, Inc.). The relative vascular area will be determined by measuring the area taken up by blood vessels. […] The number of blood vessel branch points will be quantify by two researchers, and compared to the treatment controls (Brooks et al., 1999).
Ang-2 inhibits angiogenesis in vivo (CAM model). […] Vascular responses were assessed 72 h later.

[3] = target: Tie2 (Homo sapiens, UniProt Q02763); experiment: Tie2 phosphorylation, immunoprecipitation; assay type: cell-based; details: U-87 MG
Chain of Tie2 (Q02763 23-1124): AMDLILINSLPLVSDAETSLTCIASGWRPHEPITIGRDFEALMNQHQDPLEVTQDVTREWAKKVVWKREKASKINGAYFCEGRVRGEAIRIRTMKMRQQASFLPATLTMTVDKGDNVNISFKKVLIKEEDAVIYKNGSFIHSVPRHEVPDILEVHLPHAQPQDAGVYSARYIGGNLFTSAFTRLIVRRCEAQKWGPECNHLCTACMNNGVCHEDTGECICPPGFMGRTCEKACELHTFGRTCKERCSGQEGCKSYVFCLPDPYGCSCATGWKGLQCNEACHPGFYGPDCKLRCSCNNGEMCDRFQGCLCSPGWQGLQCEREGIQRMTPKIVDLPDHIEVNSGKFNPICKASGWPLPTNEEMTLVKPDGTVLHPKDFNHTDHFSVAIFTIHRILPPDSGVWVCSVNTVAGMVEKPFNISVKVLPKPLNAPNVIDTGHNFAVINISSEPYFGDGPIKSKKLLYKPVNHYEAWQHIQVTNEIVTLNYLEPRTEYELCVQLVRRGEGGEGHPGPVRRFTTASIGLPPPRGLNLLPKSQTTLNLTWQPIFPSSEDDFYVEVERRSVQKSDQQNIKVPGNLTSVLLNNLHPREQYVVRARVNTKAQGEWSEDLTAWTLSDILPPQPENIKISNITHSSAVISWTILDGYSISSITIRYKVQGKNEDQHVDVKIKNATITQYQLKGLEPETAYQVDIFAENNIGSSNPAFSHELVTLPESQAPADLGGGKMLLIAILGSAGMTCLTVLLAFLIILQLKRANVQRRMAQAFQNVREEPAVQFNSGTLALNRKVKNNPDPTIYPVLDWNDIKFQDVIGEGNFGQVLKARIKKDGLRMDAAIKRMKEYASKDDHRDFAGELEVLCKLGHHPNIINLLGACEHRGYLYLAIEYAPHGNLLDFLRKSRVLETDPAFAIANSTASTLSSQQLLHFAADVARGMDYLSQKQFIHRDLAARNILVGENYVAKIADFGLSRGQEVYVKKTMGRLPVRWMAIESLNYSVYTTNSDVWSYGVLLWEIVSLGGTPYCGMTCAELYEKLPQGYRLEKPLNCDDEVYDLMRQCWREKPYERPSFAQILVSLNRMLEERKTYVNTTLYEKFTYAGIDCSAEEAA
Procedure: To explore the regulation of Tie2 signaling by Angs in U-87 MG cells, Tie2 was immunoprecipitated from membrane fractions of U-87 MG cells treated with rAng1 (500 ng/ml) for 10 min, and phosphorylation of Tie2 was addressed using anti-phosphotyrosine antibody.

[4] = target: T1, EGFRvIII (Homo sapiens, UniProt P00533, DELINS30-297G); experiment: Membrane fluorescence staining with anti-EGFRvIII peptide-FITC, flow cytometry; assay type: binding; details: 1 μM, 30 min
T1 construct: expressed in transfected cells; host or cells: U-87 MG stably transfected with mutant EGFR (U87MG.ΔEGFR; Nishikawa et al., 1994)
Procedure: Briefly, the inventors performed membrane fluorescence staining of single-cell suspensions after incubating U-87 MG, U87.wtEGFR, and U-87.ΔEGFRvIII (Nishikawa et al., 1994) with the anti-EGFRvIII peptide (PEPCH1)-FITC (1 μM) (Campa et al., 2000) for 30 min. The cells were then washed twice with PBS and then analyzed for fluorescence with an EPICS XL-MCL flow cytometer (Beckman-Coulter Inc., Miami, Fla.) using a 488 nm argon laser for excitation. Fluorescence was detected with a 520 nm band-pass filter, and all cytometric data was analyzed with the System II software (Beckman-Coulter Inc.). Data are shown as the percentages of FICT-positive cells (empty graph) compared to mock-treated cells (solid graphs) from a representative experiment.

[5] = Organ uptake after injection of W/Re-188 generator eluant; assay type: in vivo; details: 100 μCi
Procedure: Urine and later fecal accumulation (at 24 hours) is also observed.
Whole-mount sections of animals were prepared after tail vein injection of ^188Re elutant produced by a Rhenium generator at 100 μCi, which provides additional conformation of the anatomic localization of the images provided by gamma camera assessment. […] The bladder where the isotope is being eliminated is also visualized. Individual organs can be harvested and isotope counts can be determined per gram of tissue as a quantitative measure of radionuclide uptake.

[6] = tested on: U-87 MG xenograft; experiment: Survival with antiangiogenic compounds, glioma xenograft mouse model; assay type: in vivo, athymic mice; details: P>0.5 logrank
Procedure: Testing the effect of antiangiogenic compounds on the survival of human glioma xenograft mouse model. Comparative survival analysis of the anticancer effect of different antiangiogenic treatments have been performed using the U-87 MG xenograft mouse model). PTK787/ZK 222584 was evaluated as a VEGFR inhibitor (Thomas et al., 2003); and imatinib/Glivec as a potent PDGFRβ inhibitor (Manley et al., 2002). Briefly, human glioma cells (5×10^5 U-87 MG) were engrafted into the caudate nucleus of athymic mice using a guide-screw system as previously described (Fueyo et al., 2003). […] Neither group treatment had long-term survivors.

[7] = tested on: parental U251MG cells; experiment: Cell viability assay, 5-FC dose response; assay type: cell-based; details: Homo sapiens, U-251, 120 h, 5 days
Procedure: (§1) Note the shift to the left of the IC50 curve for the hyCD stable-transfected U251MG cells in the presence of 5-FC. IC50 values for both cultures are indicated.
(§2) U251MG and U87MG cell lines were grown to 95% monolayer confluence. The cells were trypsinized and harvested with 0.25% trypsin/EDTA, plated in 6-well tissue culture plates, and allowed to adhere overnight at 37° C. in 5% CO2 humidified incubators. 5-FU or 5-FC in serial 0.5-log concentrations in 100 μl aliquots was added directly to the cells to achieve final concentrations, as previously described (Miller, 2002). Cells were incubated at 37° C. for 5 days and cell viability by cellular respiration was determined using 3-(4,5-methylthiazole-2-yl)-5-(3-carboxymethoxy-phenyl)-2-(4-sulfonyl)-2H-tetrazolium) (Promega, Madison, Wis.) according to the manufacturer's protocol. The cell survival fraction was measured at each drug concentration as the ratio of absorbance at 490 nm relative to untreated cells. This calculation was normalized for background absorbance of the culture medium alone. The cell survival fraction was plotted against the logarithm of the drug concentration, and IC50 values were calculated using a sigmoidal dose-response curve with variable slope in GraphPad Prism 3.01.

[8] = tested on: hyCD stable-transfected U251MG cells; experiment: Cell viability assay, 5-FC dose response; assay type: cell-based, human
Procedure: as §1, §2

[9] = tested on: U251 cells; experiment: Cell mixing experiments, Tc99O4 uptake after Δ24-NIS infection; assay type: cell-based, human; details: U251 infected with Δ24-NIS
Procedure: Cells incubated with virus for 1.5 h then washed extensively and mixed at different percentages with uninfected U251 cells. Uptake assays were then performed at 48 h and values are given as fold increase (ratios) of Tc^99O4 within the cells compared to control cells.
U251MG and U87MG glioma cell lines are transiently transfected, then incubated with ^99mTcO4. These in vitro techniques are modifications of an assay developed by Petrich et al. (2002). Briefly, cells are plated into 24-well plates and allowed to achieve 90% confluence. Various titers of Δ24-NIS are added, incubating and infecting the cells for 2 h. The cells are then washed, and the assay performed at 24, 48, and 72 h. The cells are pre-incubated at 37° C. for 30 min in 1 ml of HEPES-buffered Hanks balanced salt solution (bHBSS). […] Cellular radioactivity is released with 1 ml ice-cold 100% ethanol for 20 min, and counted in a cross-calibrated gamma counter. Protein content of the 6 wells per cell line are determined using a BCA assay kit.
Because of the concern that an oncolytic virus could destroy the cells expressing the NIS transgene and blunt the ability to concentrate-adequate amounts of radionuclide, a study were performed to determine the percentage of cells required to obtain significant concentrations of isotope. […] The result is shown in FIG. 11 and is expressed as fold increase (ratios) over control cells.

[10] = cited from earlier work

Q: With “rhAng-2: recombinant angiopoietin 2 protein” as the molecule, how does the “formation of vascular-like structures” value [1] read?
A: lost their ability to form vascular-like structures

Q: And the “vascular response in CAM” value [2]?
A: dramatically decreased newly sprouting angiogenic vessels

Q: And the “effect on Ang1-induced Tie2 phosphorylation” value [3]?
A: Inhibition of Tie2 phosphorylation

Q: With “HFLIIGFMRRALCGA [PEPCH1, anti-EGFRvIII peptide, FITC-labeled]” as the molecule, how does the “binding to EGFRvIII-expressing cells” value [4] read?
A: specific binding

Q: For `[O]=[188Re](=[O])(=[O])[O-]` [^188ReO4, Rhenium-188 perrenate], which “tissues with uptake of 188ReO4” value [5] is on record?
A: thyroid and stomach

Q: Which survival versus vehicle [6] does the source give for `Cc1ccc(NC(=O)c2ccc(CN3CCN(C)CC3)cc2)cc1Nc1nccc(-c2cccnc2)n1` [Imatinib] here?
A: did not significantly improve the survival

Q: With `Nc1nc(=O)[nH]cc1F` [5-FC, 5-fluorocytosine] as the molecule, how does the IC50 [7] read?
A: 3090 µg/mL (≈ 24 mM)

Q: What about the IC50 ([8]; Homo sapiens, U-251, 120 h, U251MG cells expressing hyCD, 5 days) of the same molecule?
A: 12.4 µg/mL (≈ 0.0961 mM)

Q: And the “increased sensitivity of hyCD-expressing versus parental cells to 5-FC” value ([8]; U251MG)?
A: approximately 3 orders of magnitude

Q: With `[O-][Cl+3]([O-])([O-])O` [sodium perchlorate] as the molecule, how does the “inhibition of NIS activity” value [9] read?
A: complete inhibition of NIS activity

Q: Which survival versus vehicle [6] does the source give for `Clc1ccc(Nc2nnc(Cc3ccncc3)c3ccccc23)cc1` [PTK787] here?
A: did not significantly improve the survival

B1: bakers' yeast CD: cytosine deaminase previously isolated from Saccharomyces cerevisiae (protein, UniProt Q12178 1-158, looked up)
Cytosine deaminase: MVTGGMASKWDQKGMDIAYEEAALGYKEGGVPIGGCLINNKDGSVLGRGHNMRFQKGSATLHGEISTLENCGRLEGKVYKDTTLYTTLSPCDMCTGAIIMYGIPRCVVGENVNFKSKGEKYLQTRGHEVVVVDDERCKKIMKQFIDERPQDWFEDIGE
Q: What does the source list for B1?
A: time activity is maintained in solution ([10]; 4° C., pH 5-9): at least 48 hr; time to lose half of activity ([10]; 37° C., crude preparation): 1 h
